# From US9469650B2, “Melampomagnolide B derivatives” (BOARD OF TRUSTEES OF THE UNIVERSITY OF ARKANSAS, priority 2013, dated 2016)
# Legend:
# MALME-3M [1] = tested on: MALME-3M
# MALME-3M [2] = assay: panel of 60 human tumor cell lines, growth inhibition (Melanoma); settings: MALME-3M
compound,measurement,setting,value
C=C1C(=O)O[C@H]2[C@H]1CC/C(COC(=O)NCCN1CCCCC1)=C\CC[C@@]1(C)O[C@@H]21 [JVM 2-13],CC50,CCRF-CEM,> 100 µM
same,CC50,K-562,> 100 µM
same,CC50,MOLT-4,> 100 µM
same,CC50,SR,> 100 µM
same,CC50,A549/ATCC,98.5 µM
same,CC50,HOP-62,68.5 µM
same,CC50,HOP-92,42.1 µM
same,CC50,NCI-H23,65.5 µM
same,CC50,NCI-H322M,61.1 µM
same,CC50,NCI-H460,78.1 µM
same,CC50,NCI-H522,7.25 µM
same,CC50,HCC-2998,70.1 µM
same,CC50,HCT-15,50.7 µM
same,CC50,SW-620,50.3 µM
same,CC50,SF-268,60.2 µM
same,CC50,SF-295,> 100 µM
same,CC50,SNB-19,73.1 µM
same,CC50,SNB-75,48.8 µM
same,CC50,U251,64.1 µM
same,CC50,LOX IMVI,56.2 µM
same,CC50,MALME-3M [1],50.6 µM
same,CC50,M14,55.1 µM
same,CC50,MDA-MB-435,43.8 µM
same,CC50,SK-MEL-2,69.7 µM
same,CC50,SK-MEL-28,47.2 µM
same,CC50,SK-MEL-5,58.3 µM
same,CC50,UACC-257,49.9 µM
same,CC50,UACC-62,50.1 µM
same,CC50,IGROV1,81.2 µM
same,CC50,OVCAR-5,55.2 µM
same,CC50,OVCAR-8,58.4 µM
same,CC50,SK-OV-3,> 100 µM
same,CC50,786-0,56.2 µM
same,CC50,A498,53.1 µM
same,CC50,SN12C,58.5 µM
same,CC50,TK-10,35.8 µM
same,CC50,UO-31,49.5 µM
same,CC50,PC-3,70.9 µM
same,CC50,DU-145,42 µM
same,CC50,MCF7,62.5 µM
same,CC50,MDA-MB-231/ATCC,56.5 µM
same,CC50,HS 578T,> 100 µM
same,CC50,BT-549,44.3 µM
same,GI50,MALME-3M [2],1.47 µM
same,TGI,MALME-3M [2],4.6e-06 M
same,Percent Growth,MALME-3M [2]; Log10 Concentration −4.0,−57%
same,Percent Growth,MALME-3M [2]; Log10 Concentration −5.0,−34%
same,Percent Growth,MALME-3M [2]; Log10 Concentration −6.0,67%
same,Percent Growth,MALME-3M [2]; Log10 Concentration −7.0,99%
same,Percent Growth,MALME-3M [2]; Log10 Concentration −8.0,103%
C=C1C(=O)O[C@H]2[C@H]1CC/C(COC(=O)N1CCN(C)CC1)=C\CC[C@@]1(C)O[C@@H]21 [JVM 2-44],CC50,CCRF-CEM,> 100 µM
same,CC50,K-562,> 100 µM
same,CC50,MOLT-4,> 100 µM
same,CC50,SR,> 100 µM
same,CC50,A549/ATCC,> 100 µM
same,CC50,HOP-62,> 100 µM
same,CC50,HOP-92,44.3 µM
same,CC50,NCI-H23,82.4 µM
same,CC50,NCI-H322M,> 100 µM
same,CC50,NCI-H460,> 100 µM
same,CC50,NCI-H522,8.2 µM
same,CC50,HCC-2998,71.9 µM
same,CC50,HCT-15,56.6 µM
same,CC50,SW-620,58.3 µM
same,CC50,SF-268,75.7 µM
same,CC50,SF-295,> 100 µM
same,CC50,SNB-19,> 100 µM
same,CC50,SNB-75,61.2 µM
same,CC50,U251,88.7 µM
same,CC50,LOX IMVI,55.9 µM
same,CC50,MALME-3M [1],65.4 µM
same,CC50,M14,69.9 µM
same,CC50,MDA-MB-435,57.5 µM
same,CC50,SK-MEL-2,75.3 µM
same,CC50,SK-MEL-28,56.5 µM
same,CC50,SK-MEL-5,58.7 µM
same,CC50,UACC-257,54.1 µM
same,CC50,UACC-62,54.1 µM
same,CC50,IGROV1,76 µM
same,CC50,OVCAR-5,68.6 µM
same,CC50,OVCAR-8,80.6 µM
same,CC50,SK-OV-3,> 100 µM
same,CC50,786-0,72.3 µM
same,CC50,A498,> 100 µM
same,CC50,SN12C,69.7 µM
same,CC50,TK-10,41.6 µM
same,CC50,UO-31,47.6 µM
same,CC50,PC-3,> 100 µM
same,CC50,DU-145,48.7 µM
same,CC50,MCF7,60.1 µM
same,CC50,MDA-MB-231/ATCC,67 µM
same,CC50,HS 578T,> 100 µM
same,CC50,BT-549,49 µM
same,GI50,MALME-3M [2],3.33 µM
same,TGI,MALME-3M [2],1.20E−5
same,Mean Optical Densities,MALME-3M [2]; Log10 Concentration −4.0,0.168
same,Percent Growth,MALME-3M [2]; Log10 Concentration −4.0,−63%
same,Mean Optical Densities,MALME-3M [2]; Log10 Concentration −5.0,0.461
same,Percent Growth,MALME-3M [2]; Log10 Concentration −5.0,5%
same,Mean Optical Densities,MALME-3M [2]; Log10 Concentration −6.0,0.705
same,Percent Growth,MALME-3M [2]; Log10 Concentration −6.0,99%
same,Mean Optical Densities,MALME-3M [2]; Log10 Concentration −7.0,0.680
same,Percent Growth,MALME-3M [2]; Log10 Concentration −7.0,89%
same,Mean Optical Densities,MALME-3M [2]; Log10 Concentration −8.0,0.702
same,Percent Growth,MALME-3M [2]; Log10 Concentration −8.0,98%
